Test results from publication PMC5513037, “Examining the influence of specificity ligands and ATP-competitive ligands on the overall effectiveness of bivalent kinase inhibitors” (Proteome Science, 2017).

Experiments:
Assay in all cases: KAM-matrix competition in K562 lysate;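 on 0.001 uM KAM: median log10 fold change of treatment over DMSO control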;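 on 0.01 uM KAM: median log10 fold change of treatment over DMSO control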;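 on 0.1 uM KAM: median log10 fold change of treatment over DMSO control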;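 on 1 uM KAM: median log10 fold change of treatment over DMSO control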;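 on 10 uM KAM: median log10 fold change of treatment over DMSO control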
Assay type in all cases: binding
NPR2 = target: T1, NPR2 (Homo sapiens, UniProt P20594);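 on 0.001 uM KAM: median log10 fold change of treatment over DMSO control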;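 on 0.01 uM KAM: median log10 fold change of treatment over DMSO control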;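 on 0.1 uM KAM: median log10 fold change of treatment over DMSO control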;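 on 1 uM KAM: median log10 fold change of treatment over DMSO control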;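 on 10 uM KAM: median log10 fold change of treatment over DMSO control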
T1 construct: endogenous in cells; host or cells: K562
T1 sequence (P20594 23-1047): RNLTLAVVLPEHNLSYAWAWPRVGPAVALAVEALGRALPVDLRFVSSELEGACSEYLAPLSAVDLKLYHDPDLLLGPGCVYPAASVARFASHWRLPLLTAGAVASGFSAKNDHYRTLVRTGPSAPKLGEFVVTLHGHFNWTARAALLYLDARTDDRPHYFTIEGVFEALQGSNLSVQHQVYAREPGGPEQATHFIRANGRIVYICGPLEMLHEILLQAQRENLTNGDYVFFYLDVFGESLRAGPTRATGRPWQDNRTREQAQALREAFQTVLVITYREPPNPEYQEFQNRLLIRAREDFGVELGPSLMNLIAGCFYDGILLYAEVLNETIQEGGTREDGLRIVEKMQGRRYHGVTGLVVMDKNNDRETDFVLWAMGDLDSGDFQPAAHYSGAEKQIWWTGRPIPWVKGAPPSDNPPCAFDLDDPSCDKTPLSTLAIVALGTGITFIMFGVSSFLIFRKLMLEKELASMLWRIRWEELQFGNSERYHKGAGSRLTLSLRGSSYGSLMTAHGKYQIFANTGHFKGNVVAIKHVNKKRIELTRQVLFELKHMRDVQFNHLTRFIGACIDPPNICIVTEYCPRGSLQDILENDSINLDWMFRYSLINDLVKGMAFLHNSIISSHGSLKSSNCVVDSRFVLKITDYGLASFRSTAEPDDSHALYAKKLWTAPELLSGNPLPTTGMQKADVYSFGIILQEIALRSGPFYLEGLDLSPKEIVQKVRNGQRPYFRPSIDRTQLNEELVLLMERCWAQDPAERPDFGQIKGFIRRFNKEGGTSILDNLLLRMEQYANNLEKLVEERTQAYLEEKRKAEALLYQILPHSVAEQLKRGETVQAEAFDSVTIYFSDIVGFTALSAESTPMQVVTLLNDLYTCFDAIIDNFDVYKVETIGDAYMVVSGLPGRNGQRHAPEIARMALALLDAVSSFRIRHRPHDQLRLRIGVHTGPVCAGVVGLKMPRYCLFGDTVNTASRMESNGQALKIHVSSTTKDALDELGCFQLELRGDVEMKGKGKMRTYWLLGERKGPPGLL
Protocol: (§1) Supplement 12953_2017_125_MOESM1_ESM.zip/MS_Supp Info.xlsx, sheet "KAM" | column: 10 uM KAM; 1 uM KAM; 0.1 uM KAM; 0.01 uM KAM; 0.001 uM KAM; RB50

MAPK8 = target: T2, MAPK8 (Homo sapiens, UniProt P45983)
T2 construct: endogenous in cells; host or cells: K562
Protocol: as §1

STK17A = target: T3, STK17A (Homo sapiens, UniProt Q9UEE5)
T3 construct: endogenous in cells; host or cells: K562 cell lysate
T3 sequence (Q9UEE5 1-414): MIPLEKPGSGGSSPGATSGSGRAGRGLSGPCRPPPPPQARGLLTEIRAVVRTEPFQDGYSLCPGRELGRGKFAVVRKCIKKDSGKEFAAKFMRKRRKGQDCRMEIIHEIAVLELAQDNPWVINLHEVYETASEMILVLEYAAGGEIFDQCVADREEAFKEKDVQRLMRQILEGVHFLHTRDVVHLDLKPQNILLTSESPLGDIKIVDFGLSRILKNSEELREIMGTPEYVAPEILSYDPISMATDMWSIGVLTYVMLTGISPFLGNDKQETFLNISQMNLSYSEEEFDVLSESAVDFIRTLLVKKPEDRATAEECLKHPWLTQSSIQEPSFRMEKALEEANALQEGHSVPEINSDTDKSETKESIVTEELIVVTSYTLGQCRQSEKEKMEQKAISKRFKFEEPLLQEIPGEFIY
Protocol: as §1

CAMK2G = target: T4, CAMK2G (Homo sapiens, UniProt Q13555);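 on 0.001 uM KAM: median log10 fold change of treatment over DMSO control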;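 on 0.01 uM KAM: median log10 fold change of treatment over DMSO control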;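 on 0.1 uM KAM: median log10 fold change of treatment over DMSO control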;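 on 1 uM KAM: median log10 fold change of treatment over DMSO control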;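 on 10 uM KAM: median log10 fold change of treatment over DMSO control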
T4 construct: endogenous in cells; host or cells: K562
Protocol: as §1

DDR1 = target: T5, DDR1 (Homo sapiens, UniProt Q08345)
T5 construct: endogenous in cells; host or cells: K562
Protocol: as §1

TNIK = target: T6, TNIK (Homo sapiens, UniProt Q9UKE5)
T6 construct: K562 cell pellets were thawed on ice and resuspended in cold Lysis buffer; endogenous in cells; host or cells: K562
Protocol: as §1

[1] = KAM 0.001-10 uM, read-out: RB50 (the source's name)
[2] = read-out: RB50 (the source's name)

T4 sequence (Q13555 whole entry): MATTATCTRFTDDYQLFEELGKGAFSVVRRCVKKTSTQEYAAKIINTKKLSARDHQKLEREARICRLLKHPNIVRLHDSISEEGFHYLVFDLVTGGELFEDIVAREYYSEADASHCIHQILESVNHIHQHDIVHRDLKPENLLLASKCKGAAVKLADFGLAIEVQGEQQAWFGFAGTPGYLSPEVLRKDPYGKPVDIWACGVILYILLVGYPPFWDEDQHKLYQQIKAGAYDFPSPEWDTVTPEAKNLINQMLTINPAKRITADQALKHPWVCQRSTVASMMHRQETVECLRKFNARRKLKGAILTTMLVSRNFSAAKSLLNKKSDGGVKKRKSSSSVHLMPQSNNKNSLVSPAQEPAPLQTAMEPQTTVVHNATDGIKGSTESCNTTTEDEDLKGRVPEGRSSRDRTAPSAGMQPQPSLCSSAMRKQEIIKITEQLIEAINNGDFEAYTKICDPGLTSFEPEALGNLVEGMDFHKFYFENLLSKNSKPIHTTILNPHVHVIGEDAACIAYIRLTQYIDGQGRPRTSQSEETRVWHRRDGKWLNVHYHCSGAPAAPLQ
T5 sequence (Q08345 19-913): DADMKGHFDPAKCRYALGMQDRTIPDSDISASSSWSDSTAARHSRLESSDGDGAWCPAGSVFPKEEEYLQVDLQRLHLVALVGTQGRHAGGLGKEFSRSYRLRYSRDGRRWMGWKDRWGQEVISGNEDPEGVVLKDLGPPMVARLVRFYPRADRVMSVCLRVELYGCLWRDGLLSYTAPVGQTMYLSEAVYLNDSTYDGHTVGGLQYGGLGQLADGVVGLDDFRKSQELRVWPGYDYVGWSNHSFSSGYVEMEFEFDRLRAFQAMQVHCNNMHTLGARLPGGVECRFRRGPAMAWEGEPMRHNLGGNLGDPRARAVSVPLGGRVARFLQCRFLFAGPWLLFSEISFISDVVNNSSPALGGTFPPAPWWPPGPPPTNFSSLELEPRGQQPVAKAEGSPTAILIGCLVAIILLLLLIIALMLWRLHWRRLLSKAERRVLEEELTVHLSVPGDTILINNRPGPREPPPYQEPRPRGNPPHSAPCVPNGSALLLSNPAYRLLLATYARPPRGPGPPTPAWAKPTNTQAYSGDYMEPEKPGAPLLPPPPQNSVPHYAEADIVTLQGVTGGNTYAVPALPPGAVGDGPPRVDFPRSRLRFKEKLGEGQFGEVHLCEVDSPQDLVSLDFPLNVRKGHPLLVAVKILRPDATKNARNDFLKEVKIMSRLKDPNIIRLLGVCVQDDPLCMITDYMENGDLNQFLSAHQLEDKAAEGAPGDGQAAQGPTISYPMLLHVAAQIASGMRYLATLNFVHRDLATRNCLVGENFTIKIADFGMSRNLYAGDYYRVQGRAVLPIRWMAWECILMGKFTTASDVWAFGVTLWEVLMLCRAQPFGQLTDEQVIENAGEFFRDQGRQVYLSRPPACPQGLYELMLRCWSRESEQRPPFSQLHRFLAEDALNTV
T6 sequence (Q9UKE5 whole entry): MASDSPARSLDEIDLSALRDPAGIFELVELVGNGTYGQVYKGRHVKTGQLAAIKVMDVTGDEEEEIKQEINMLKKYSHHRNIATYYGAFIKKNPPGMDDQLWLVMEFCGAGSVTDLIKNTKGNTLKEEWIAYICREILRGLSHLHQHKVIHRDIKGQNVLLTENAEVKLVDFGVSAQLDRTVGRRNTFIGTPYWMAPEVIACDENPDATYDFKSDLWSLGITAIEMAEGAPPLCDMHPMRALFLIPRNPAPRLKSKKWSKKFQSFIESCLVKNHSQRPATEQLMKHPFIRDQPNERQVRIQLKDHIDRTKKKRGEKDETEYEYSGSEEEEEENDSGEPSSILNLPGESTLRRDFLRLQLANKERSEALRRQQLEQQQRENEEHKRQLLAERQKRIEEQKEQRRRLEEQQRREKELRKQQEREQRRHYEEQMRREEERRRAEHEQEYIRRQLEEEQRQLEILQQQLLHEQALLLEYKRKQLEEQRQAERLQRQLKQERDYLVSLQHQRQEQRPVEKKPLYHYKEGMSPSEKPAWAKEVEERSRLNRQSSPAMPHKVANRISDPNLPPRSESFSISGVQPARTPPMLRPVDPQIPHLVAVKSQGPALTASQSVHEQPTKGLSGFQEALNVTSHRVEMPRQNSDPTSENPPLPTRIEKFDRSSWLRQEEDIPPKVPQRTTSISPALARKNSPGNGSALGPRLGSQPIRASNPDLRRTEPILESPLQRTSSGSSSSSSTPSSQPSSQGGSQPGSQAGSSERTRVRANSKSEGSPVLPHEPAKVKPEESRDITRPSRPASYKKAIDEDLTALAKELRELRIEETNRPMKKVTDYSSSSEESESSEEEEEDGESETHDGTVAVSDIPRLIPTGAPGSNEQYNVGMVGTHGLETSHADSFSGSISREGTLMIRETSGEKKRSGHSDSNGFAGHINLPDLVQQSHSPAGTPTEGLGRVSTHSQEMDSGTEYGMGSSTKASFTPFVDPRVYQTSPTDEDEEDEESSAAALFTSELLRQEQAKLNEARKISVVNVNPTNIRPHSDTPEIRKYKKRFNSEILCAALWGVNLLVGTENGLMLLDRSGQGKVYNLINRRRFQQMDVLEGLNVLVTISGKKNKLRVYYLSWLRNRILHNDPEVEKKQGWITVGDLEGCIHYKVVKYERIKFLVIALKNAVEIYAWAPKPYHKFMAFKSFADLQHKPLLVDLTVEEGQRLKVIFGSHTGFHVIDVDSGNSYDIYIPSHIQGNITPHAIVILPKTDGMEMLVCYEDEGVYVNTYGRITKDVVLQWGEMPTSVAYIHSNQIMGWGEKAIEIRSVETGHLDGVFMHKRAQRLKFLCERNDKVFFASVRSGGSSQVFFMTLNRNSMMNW
T2 sequence (P45983 whole entry): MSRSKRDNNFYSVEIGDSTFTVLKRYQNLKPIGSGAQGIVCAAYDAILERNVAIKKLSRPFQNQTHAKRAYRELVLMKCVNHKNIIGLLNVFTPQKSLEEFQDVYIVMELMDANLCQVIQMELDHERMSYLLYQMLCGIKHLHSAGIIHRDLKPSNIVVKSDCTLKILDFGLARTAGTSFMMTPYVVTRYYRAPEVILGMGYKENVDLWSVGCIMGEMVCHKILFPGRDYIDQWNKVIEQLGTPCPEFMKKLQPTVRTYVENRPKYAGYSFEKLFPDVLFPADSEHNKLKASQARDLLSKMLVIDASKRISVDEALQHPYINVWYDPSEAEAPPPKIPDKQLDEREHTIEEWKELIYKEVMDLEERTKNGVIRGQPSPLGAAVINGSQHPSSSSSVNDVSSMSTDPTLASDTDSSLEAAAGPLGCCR

N#CCc1ccc(Nc2nc(NCCCN)cc(Nc3cc(C4CC4)[nH]n3)n2)cc1 [KAM]
IC50 (NPR2; [1]): > 10 µM
0.001 uM KAM (NPR2; relative to 0 uM KAM = 0): -0.04196
0.01 uM KAM (NPR2; relative to 0 uM KAM = 0): -0.03427
0.1 uM KAM (NPR2; relative to 0 uM KAM = 0): -0.06644
1 uM KAM (NPR2; relative to 0 uM KAM = 0): -0.002813
10 uM KAM (NPR2; relative to 0 uM KAM = 0): -0.07947
median Log10 fold change (MAPK8; 0.001 uM KAM): -0.03388
median Log10 fold change (MAPK8; 0.01 uM KAM): -0.03516
median Log10 fold change (MAPK8; 0.1 uM KAM): -0.1302
median Log10 fold change (MAPK8; 1 uM KAM): -0.2377
median Log10 fold change (MAPK8; 10 uM KAM): -0.3812
IC50 (MAPK8; [2]): 2.35 µM
median Log10 fold change (STK17A; 0.001 uM KAM): -0.02395
median Log10 fold change (STK17A; 0.01 uM KAM): -0.004192
median Log10 fold change (STK17A; 0.1 uM KAM): -0.2117
median Log10 fold change (STK17A; 1 uM KAM): -0.3947
median Log10 fold change (STK17A; 10 uM KAM): -0.5099
IC50 (STK17A; [2]): 0.457 µM
IC50 (CAMK2G; [1]): > 10 µM
0.001 uM KAM (CAMK2G; relative to 0 uM KAM = 0): -0.0014
0.01 uM KAM (CAMK2G; relative to 0 uM KAM = 0): 0.01571
0.1 uM KAM (CAMK2G; relative to 0 uM KAM = 0): -0.03365
1 uM KAM (CAMK2G; relative to 0 uM KAM = 0): -0.07588
10 uM KAM (CAMK2G; relative to 0 uM KAM = 0): -0.2109
median Log10 fold change (DDR1; 0.001 uM KAM): -0.02436
median Log10 fold change (DDR1; 0.01 uM KAM): -0.004539
median Log10 fold change (DDR1; 0.1 uM KAM): -0.13
median Log10 fold change (DDR1; 1 uM KAM): -0.3025
median Log10 fold change (DDR1; 10 uM KAM): -0.3889
IC50 (DDR1; [2]): 1.33 µM
median Log10 fold change (TNIK; 0.001 uM KAM): -0.02112
median Log10 fold change (TNIK; 0.01 uM KAM): -0.02269
median Log10 fold change (TNIK; 0.1 uM KAM): -0.2334
median Log10 fold change (TNIK; 1 uM KAM): -0.3546
median Log10 fold change (TNIK; 10 uM KAM): -0.3559
IC50 (TNIK; [2]): 0.646 µM
